Key:
PANC1 cells [1] = assay: Intracellular alanine levels in drug-treated PANC1 cells (GC-MS); assay type: cell-based, human; conditions: 24 hours, PXT 10 μM, DPM 10, racemic FLX 10 or 25 μM, vs vehicle (DMSO)
Protocol: (A) Western blot depicting SLC38A2 levels in PANC1 cells engineered to express SLC38A2 under control of doxycycline. Withdrawal of doxycycline results in a significant depletion in SLC38A2 levels after 24 hours.
Fluvoxamine (FVX), fluoxetine (FLX), paroxetine (PXT), sertindole (SND), and blonanserin (BNS) were acquired from Cayman Chemicals. Desipramine (DPM), α-(Methylamino) isobutyric acid (MeAIB), and L-alanine were acquired from Sigma. Stocks were prepared at 10 mM or 7.5 mM (BNS) in DMSO. Cells were treated with vehicle (DMSO) or varying concentrations of drug for indicated time. Conditioned media was collected and centrifuged at 1,000×g to remove cell debris followed by extraction of metabolites. For metabolite extraction, cells were first washed with ice cold 0.9% NaCl to remove media contamination followed by addition of 500 μL methanol (−20° C.) and 200 μL HPLC grade water (4° C.). Cells were scraped and pipeted into glass vials containing 500 μL chloroform (4° C.) and vortexed at 4° C. for 10-15 minutes. Aqueous and inorganic layers were separated by cold centrifugation for 15 minutes. 300 μL of the aqueous layer containing polar metabolites was transferred to sample vials (Agilent 5190-2243) and evaporated using a SpeedVac (Savant Thermo SPD111V). Dried samples were stored at −20° C. and re-evaporated for 5-10 minutes prior to derivatization and GC-MS analysis.

SLC38A2 = biological target: T1, SLC38A2 (Homo sapiens, UniProt Q96QD8); assay: SLC38A2 activity measured by MeAIB uptake in HY15549 dox-inducible SNAT2 cells; assay type: cell-based; conditions: for inhibition of MeAIB uptake (intracellular MeAIB levels): 20 μm compound, MeAIB 0.3 mM, 1 hour, vs vehicle (PBS), HY15549 cells expressing dox-inducible SLC38A2/SNAT2
T1 construct: expressed in transfected cells; host or cells: HY15549 cells with dox-inducible SNAT2
T1 sequence (Q96QD8 1-506): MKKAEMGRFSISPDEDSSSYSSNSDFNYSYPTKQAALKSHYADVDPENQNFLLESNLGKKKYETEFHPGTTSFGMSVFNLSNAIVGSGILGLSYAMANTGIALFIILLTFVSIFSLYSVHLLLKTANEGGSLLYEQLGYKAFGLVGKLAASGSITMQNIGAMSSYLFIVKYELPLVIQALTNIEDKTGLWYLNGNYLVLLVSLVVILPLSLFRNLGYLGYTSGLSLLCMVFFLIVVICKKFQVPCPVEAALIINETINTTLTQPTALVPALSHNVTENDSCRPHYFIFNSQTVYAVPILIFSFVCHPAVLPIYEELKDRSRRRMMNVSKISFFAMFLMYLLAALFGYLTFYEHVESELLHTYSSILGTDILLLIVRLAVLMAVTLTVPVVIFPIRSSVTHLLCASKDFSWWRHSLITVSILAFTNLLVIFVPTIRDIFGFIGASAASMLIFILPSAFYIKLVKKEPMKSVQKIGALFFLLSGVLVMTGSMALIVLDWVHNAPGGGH
Protocol: (A) Schematic depicting SLC38A2-dependent update of alanine structural analog, methyl α-aminoisobutyrate (MeAIB). […] (B) Total ion chromatogram (TIC) of HY15549 dox-inducible SNAT2 cells treated with 1 mM MeAIB for 24 hours compared to vehicle (PBS). […] HY15549 dox-inducible SNAT2 cells were cultured with a concentration gradient of MeAIB for 15 minutes (gray circles) or 60 minutes (black squares). (D) Western blot depicting SLC38A2 expression relative to doxycycline after 24 hours culture in HY15549 dox-inducible SNAT2 cells. (E) Intracellular MeAIB levels in HY15549 dox-inducible cells cultured with dox (+SNAT2, left bar) and without dox (KO, right bar) for 24 hours with 1 mM MeAIB. (F) Intracellular MeAIB levels in HY15549 dox-inducible cells cultured with vehicle, paroxetine (PXT, 20 μM), or sertraline (SRT, 20 μm) for 24 hours with 300 μM MeAIB.

HY19636 cells = assay: Orthotopic syngeneic allograft, HY19636 cells; assay type: in vivo, C57BL/6J mice; conditions: HY19636 (2.5×10^4) pooled SLC38A2-deficient cells vs sgTom, 27 days
Protocol: (§1) (A) SLC38A2 staining in pancreatic tumors derived from the KPC (LSL-Kras^G12D; Trp53^lox/+; p48Cre+) mouse model and normal murine pancreas. Representative fields from KPC (4×, left) and normal pancreas (10×, right) are depicted with scale bars. Arrows indicate instances of punctate SLC38A2 in normal pancreas (right). (B) Representative live cell images of HY19636 (left) and mPSC #1 (right) cells transiently transfected with 3 μg of SLC38A2-GFP (green) overnight and stained with MitoTracker (red) to visualize individual cells; scale bars are indicated in figures. […] Subcutaneous tumors were monitored bi-weekly by caliper measurement and considered formed if length and width were measured to be ≥1 mm each. […] Orthotopic xenografts were monitored by 3-D ultrasound bi-weekly and considered tumors if volume ≥1 mm^3. […] HY19636 (2.5×10^4) or PANC1 (5×10^5) control (sgTom) or pooled SLC38A2-deficient (sgSLC38A2 #1, #3) cells were injected orthotopically, and tumors were weighed following resection after 27 days (HY19636) or 63 days (PANC1). Error bars depict s.e.m. of tumors resected from 9-10 mice.
For orthotopic xenograft experiments, PANC1 cells were infected with lentiviral shRNAs or sgRNAs targeting SLC38A2 or GFP/Tomato as a control and selected with puromycin (2 μg/mL) for three days. […]

PANC1 cells [2] = assay: Orthotopic xenograft, PANC1 cells; assay type: in vivo, NCr nude mice; conditions: for tumor burden (tumor weight after resection): PANC1 (5×10^5) pooled SLC38A2-deficient cells vs sgTom, 63 days; for tumor initiation: SLC38A2 knockdown PANC1 cells (5×10^5), orthotopic, vs shGFP, 3-D ultrasound, tumor if volume ≥1 mm^3
Protocol: as §1
For orthotopic xenograft experiments, PANC1 cells were infected with lentiviral shRNAs or sgRNAs targeting SLC38A2 or GFP/Tomato as a control and selected with puromycin (2 μg/mL) for three days. For syngeneic orthotopic allograft studies, HY19636 cells were infected with lentiviral sgRNAs targeting SLC38A2 or Tomato and selected with puromycin (2 μg/mL) for three days. 500,000 PANC1 cells or […] HY19636 cells were resuspended in 10 μl HBSS and 10 μl growth factor-reduced matrigel (Corning 356231) per injection and kept on ice. Female 7-8 week old NCr nude or C57BL/6J mice were used for xenograft and allograft experiments, respectively. An incision was made near the spleen which was gently removed from the peritoneal space to expose the pancreas. The 20 μL cell:matrigel suspension was slowly injected into the tail of the exposed pancreas using either a Hamilton or insulin syringe (BD 324702). After injection, the needle was held in place by tweezers briefly to allow the matrigel to polymerize before gently removing the needle and re-introducing the spleen and pancreas into the animal. The peritoneum was sutured and the wound was closed with surgical staples. Buprenorphine was administered by intraperitoneal injection and immediately after surgery and every 12 hours for 48 hours.
After injection, all mice were allowed to recover from surgery for five days before screening for tumor initiation by non-invasive 3-D ultrasound imaging (VisualSonics Vevo 770) twice a week under anesthesia using 1-3% isoflurane via nose cone. Tumor initiation was considered if volume ≥1 mm^3 and sustained or increased in volume over the course of the experiment. […]

PANC1 cells [3] = assay: Subcutaneous xenograft tumor initiation, PANC1 cells co-injected with hPSC #1 cells; assay type: in vivo, NCr nude mice; conditions: SLC38A2 knockdown PANC1 cells (2×10^5) co-injected with hPSC #1 cells (1×10^6), vs shGFP; tumor if length and width ≥1 mm
Protocol: (A) SLC38A2 staining in pancreatic tumors derived from the KPC (LSL-Kras^G12D; Trp53^lox/+; p48Cre+) mouse model and normal murine pancreas. Representative fields from KPC (4×, left) and normal pancreas (10×, right) are depicted with scale bars. Arrows indicate instances of punctate SLC38A2 in normal pancreas (right). (B) Representative live cell images of HY19636 (left) and mPSC #1 (right) cells transiently transfected with 3 μg of SLC38A2-GFP (green) overnight and stained with MitoTracker (red) to visualize individual cells; scale bars are indicated in figures. […] Subcutaneous tumors were monitored bi-weekly by caliper measurement and considered formed if length and width were measured to be ≥1 mm each. […] Orthotopic xenografts were monitored by 3-D ultrasound bi-weekly and considered tumors if volume ≥1 mm^3. […]
For subcutaneous co-injection tumor initiation studies, PANC1 cells were infected with lentiviral shRNAs targeting SLC38A2 or GFP as a control shRNA and selected with puromycin (2 μg/mL) for three days. […] Tumor initiation was monitored two to three times per week by caliper measurement. Tumor initiation was considered if length and width were measured to be ≥1 mm each.

Compound: CNCCC(Oc1ccc(C(F)(F)F)cc1)c1ccccc1 (racemic) [fluoxetine]
- reduction of intracellular alanine levels (PANC1 cells [1]): ~50%

Compound: CNC(C)(C)C(=O)O [MeAIB, α-(Methylamino) isobutyric acid]
- Km (SLC38A2; HY15549 dox-inducible SNAT2 cells, MeAIB concentration gradient, 15 or 60 minutes, read-out: Km of MeAIB uptake (Michaelis-Menten kinetics)): ~3.5 mM

Compound: CNCCCN1c2ccccc2CCc2ccccc21 [desipramine]
- reduction of intracellular alanine levels (PANC1 cells [1]): ~50%

Compound: Fc1ccc([C@@H]2CCNC[C@H]2COc2ccc3c(c2)OCO3)cc1 [paroxetine]
- inhibition of MeAIB uptake (intracellular MeAIB levels) (SLC38A2): inhibited
- reduction of intracellular alanine levels (PANC1 cells [1]): ~50%

Compound: CN[C@H]1CC[C@@H](c2ccc(Cl)c(Cl)c2)c2ccccc21 [sertraline]
- inhibition of MeAIB uptake (intracellular MeAIB levels) (SLC38A2): inhibited

Compound: sgSLC38A2 #1: CRISPR sgRNA targeting SLC38A2, TAATCTGAGCAATGCGATTG (SEQ ID NO:7) (expressed or natural sequence)
- tumor burden (tumor weight after resection) (HY19636 cells): significantly reduced tumor burden
- tumor burden (tumor weight after resection) (PANC1 cells [2]): significantly reduced tumor burden

Compound: sgSLC38A2 #3: CRISPR sgRNA targeting SLC38A2, TCTTATGCCATGGCTAATAC (SEQ ID NO:8) (expressed or natural sequence)
- tumor burden (tumor weight after resection) (HY19636 cells): significantly reduced tumor burden
- tumor burden (tumor weight after resection) (PANC1 cells [2]): significantly reduced tumor burden

Compound: shSLC38A2 #1: lentiviral shRNA targeting SLC38A2, GGAGAAGATACTGTGGCAA (SEQ ID NO:2), TRCN0000020243
- tumor initiation (PANC1 cells [3]): significantly suppressed
- tumor initiation (PANC1 cells [2]): significantly suppressed

Compound: shSLC38A2 #4: lentiviral shRNA targeting SLC38A2, GAATACCAAGAGTTGTTTCTA (SEQ ID NO:3), TRCN0000020241
- tumor initiation (PANC1 cells [3]): significantly suppressed
- tumor initiation (PANC1 cells [2]): significantly suppressed

— US20220275376A1, “TARGETING SLC38A2 IN PANCREATIC CANCER” (New York University, priority 2019, published 2022)
